Several values for one entry are separate records, joined by “and”; a condition that tells them apart may be missing. Identical values can stand only once.
SMILES | melting point
O=C(Nc1cccc(S(=O)(=O)C(F)(F)F)c1)c1cc2ccccc2cc1O [Example 19, 3-Hydroxy-naphthalene-2-carboxylic acid (3-trifluoromethanesulfonyl-phenyl)-amide] | 212 to 213 °C
O=C(Nc1ccc(SC(F)(F)F)c(Cl)c1)c1cc(Cl)c2ccccc2c1O [Example 27, 4-Chloro-1-hydroxy-naphthalene-2-carboxylic acid (3-chloro-4-trifluoromethylsulfanyl-phenyl)-amide] | 148 to 149 °C
O=C(Nc1ccc(S(=O)(=O)C(F)(F)F)cc1Cl)c1c(O)c(C23CC4CC(CC(C4)C2)C3)cc2c1CCCC2 [Example 29] | 205 to 206 °C
Cc1cc(C(=O)Nc2ccc(S(=O)(=O)C(F)(F)F)cc2Cl)c(O)c(C23CC4CC(CC(C4)C2)C3)c1 [Example 24, 3-Adamantan-1-yl-N-(2-chloro-4-trifluoromethanesulfonyl-phenyl)-2-hydroxy-5-methyl-benzamide] | 203 to 204 °C
O=C(Nc1cccc(S(=O)(=O)C(F)(F)F)c1)c1ccc2ccccc2c1O [Example 16, 1-Hydroxy-naphthalene-2-carboxylic acid (3-trifluoromethanesulfonyl-phenyl)-amide] | 194 to 195 °C
O=C(Nc1ccc(S(=O)(=O)C(F)(F)F)cc1Cl)c1cc(-c2ccc(F)cc2F)cc(C23CC4CC(CC(C4)C2)C3)c1O [Example 32, 5-Adamantan-1-yl-2′,4′-difluoro-4-hydroxy-biphenyl-3-carboxylic acid (2-chloro-4-trifluoromethanesulfonyl-phenyl)-amide] | 177 to 178 °C
O=C(Nc1ccc(S(=O)(=O)C(F)(F)F)cc1Cl)c1cc(Sc2ccc(F)cc2)c2ccccc2c1O [Example 31, 4-(4-Fluoro-phenylsulfanyl)-1-hydroxy-naphthalene-2-carboxylic acid (2-chloro-4-trifluoromethanesulfonyl-phenyl)-amide] | 195 to 198 °C
O=C(Nc1ccc(SC(F)(F)F)cc1)c1ccc2c(c1O)CCCC2 [Example 21, 1-Hydroxy-5,6,7,8-tetrahydro-naphthalene-2-carboxylic acid (4-trifluoromethylsulfanyl-phenyl)-amide] | 167 °C
CCc1ccc(C(C)(C)C)c(O)c1C(=O)Nc1ccc(S(=O)(=O)C(F)(F)F)cc1Cl [Example 46, 3-tert-Butyl-N-(2-chloro-4-trifluoromethanesulfonyl-phenyl)-6-ethyl-2-hydroxybenzamide] | 126 to 127 °C
O=C(Nc1cccc(S(=O)(=O)C(F)(F)F)c1)c1c(O)ccc2ccccc12 [Example 18, 2-Hydroxy-naphthalene-1-carboxylic acid (3-trifluoromethanesulfonyl-phenyl)-amide] | 179 to 180 °C
O=C(Nc1ccc(SC(F)(F)F)cc1)c1cc(Cl)c2ccccc2c1O [Example 23, 4-Chloro-1-hydroxy-naphthalene-2-carboxylic acid (4-trifluoromethylsulfanyl-phenyl)amide] | 172 to 175 °C
O=C(Nc1ccc(S(=O)(=O)C(F)(F)F)cc1Cl)c1cc([S+]([O-])c2ccc(F)cc2)c2ccccc2c1O (stereo not shown) [Example 33, 4-(4-Fluoro-benzenesulfinyl)-1-hydroxy-naphthalene-2-carboxylic acid (2-chloro-4-trifluoromethanesulfonyl-phenyl)-amide] | 198 to 199.5 °C
CCc1c(C(C)(C)C)cc(C(C)(C)C)c(O)c1C(=O)Nc1ccc(S(=O)(=O)C(F)(F)F)cc1Cl [Example 47, 3,5-Di-tert-butyl-N-(2-chloro-4-trifluoromethanesulfonyl-phenyl)-2-ethyl-6-hydroxybenzamide] | 157 to 158 °C
O=C(Nc1cccc(SC(F)(F)F)c1)c1ccc2ccccc2c1O [Example 17, 1-Hydroxy-naphthalene-2-carboxylic acid (3-trifluoromethylsulfanyl-phenyl)-amide] | 154 °C
O=C(Nc1ccc(SC(F)(F)F)cc1)c1cc(S(=O)(=O)c2ccccc2)c2ccccc2c1O [Example 22, 4-Benzenesulfonyl-1-hydroxy-naphthalene-2-carboxylic acid (4-trifluoromethylsulfanyl-phenyl)-amide] | 271 to 272 °C
O=C(Nc1ccc(S(=O)(=O)C(F)(F)F)cc1Cl)c1c(O)c(C23CC4CC(CC(C4)C2)C3)cc2c1CCC2 [Example 30, 6-Adamantan-1-yl-5-hydroxy-indan-4-carboxylic acid (2-chloro-4-trifluoromethanesulfonyl-phenyl)-amide] | 218 to 219 °C
CC1(c2cc(-c3ccc(F)cc3F)cc(C(=O)Nc3ccc(S(=O)(=O)C(F)(F)F)cc3Cl)c2O)CCCCC1 [Example 35, 2′,4′-Difluoro-4-hydroxy-5-(1-methyl-cyclohexyl)-biphenyl-3-carboxylic acid (2-chloro-4-trifluoromethanesulfonyl-phenyl)-amide] | 114 to 115 °C
Cc1cc(C(=O)Nc2ccc(S(=O)(=O)C(F)(F)F)cc2Cl)c(O)c(C(C)(C)C)c1 [Example 26, 3-tert-Butyl-N-(2-chloro-4-trifluoromethanesulfonyl-phenyl)-2-hydroxy-5-methylbenzamide] | 209 to 212 °C

Next, values leading:

melting point | SMILES
201 to 202 °C | CC(C)(C)c1cc2c(c(C(=O)Nc3ccc(S(=O)(=O)C(F)(F)F)cc3Cl)c1O)CCO2 [Example 94, 6-tert-Butyl-5-hydroxy-2,3-dihydro-benzofuran-4-carboxylic acid (2-chloro-4-trifluoromethanesulfonyl-phenyl)-amide]
218 to 219 °C (dec.) | Cc1c([S+](C)[O-])cc(C(C)(C)C)c(O)c1C(=O)Nc1ccc(S(=O)(=O)C(F)(F)F)cc1Cl (stereo not shown) [Example 51, 3-tert-Butyl-N-(2-chloro-4-trifluoromethanesulfonyl-phenyl)-2-hydroxy-5-methanesulfinyl-6-methyl-benzamide]
149 to 150 °C | CC(C)(C)c1cc(C(C)(C)C)c(O)c(C(=O)Nc2ccc(S(=O)(=O)C(F)(F)F)cc2Cl)c1O [Example 100, 3,5-Di-tert-butyl-N-(2-chloro-4-trifluoromethanesulfonyl-phenyl)-2,6-dihydroxy-benzamide]
171 to 175 °C | COc1c(O)cc(C(C)(C)C)c(O)c1C(=O)Nc1ccc(S(=O)(=O)C(F)(F)F)cc1Cl [Example 96, 3-tert-Butyl-N-(2-chloro-4-trifluoromethanesulfonyl-phenyl)-2,5-dihydroxy-6-methoxy-benzamide]
126 to 127 °C | COc1cc(C(=O)Nc2ccc(S(=O)(=O)C(F)(F)F)cc2Cl)c(O)c(C(C)(C)C)c1 [Example 53, 3-tert-Butyl-N-(2-chloro-4-trifluoromethanesulfonyl-phenyl)-2-hydroxy-5-methoxy-benzamide]
163 to 166 °C | Cc1c(O)cc(C(C)(C)C)c(O)c1C(=O)Nc1ccc(S(=O)(=O)C(F)(F)F)cc1Cl [Example 95, 3-tert-Butyl-N-(2-chloro-4-trifluoromethanesulfonyl-phenyl)-2,5-dihydroxy-6-methylbenzamide]
121 to 122 °C | COc1cc(C(C)(C)C)c(O)c(C(=O)Nc2ccc(S(=O)(=O)C(F)(F)F)cc2Cl)c1C [Example 93, 3-tert-Butyl-N-(2-chloro-4-trifluoromethanesulfonyl-phenyl)-2-hydroxy-5-methoxy-6-methyl-benzamide]
172 to 173 °C | CC(C)(C)c1cc2c(c(C(=O)Nc3ccc(S(=O)(=O)C(F)(F)F)cc3Cl)c1O)CCC2 [Example 48, 6-tert-Butyl-5-hydroxy-indan-4-carboxylic acid (2-chloro-4-trifluoromethanesulfonylphenyl)-amide]
205 to 206 °C and 201 to 202 °C | CSc1c(C)cc(O)c(C(=O)Nc2ccc(S(=O)(=O)C(F)(F)F)cc2Cl)c1C [Example 163, N-(2-Chloro-4-trifluoromethanesulfonyl-phenyl)-6-hydroxy-2,4-dimethyl-3-methylsulfanyl-benzamide]
116 to 116.5 °C | CC(C)c1ccc(C(C)(C)C)c(O)c1C(=O)Nc1ccc(S(=O)(=O)C(F)(F)F)cc1Cl [Example 54, 3-tert-Butyl-N-(2-chloro-4-trifluoromethanesulfonyl-phenyl)-2-hydroxy-6-isopropyl-benzamide]
198 to 199 °C | COc1ccc(C(C)(C)C)c(O)c1C(=O)Nc1ccc(S(=O)(=O)C(F)(F)F)cc1Cl [Example 92, 3-tert-Butyl-N-(2-chloro-4-trifluoromethanesulfonyl-phenyl)-2-hydroxy-6-methoxy-benzamide]
170 to 171 °C | COc1cc(C(C)(C)C)c(O)c(C(=O)Nc2ccc(S(=O)(=O)C(F)(F)F)cc2Cl)c1O [Example 97, 3-tert-Butyl-N-(2-chloro-4-trifluoromethanesulfonyl-phenyl)-2,6-dihydroxy-5-methoxy-benzamide]
151 °C | CC(C)(C)c1cc2c(c(C(=O)Nc3ccc(S(=O)(=O)C(F)(F)F)cc3Cl)c1O)CCCC2 [Example 50, 3-tert-Butyl-2-hydroxy-5,6,7,8-tetrahydro-naphthalene-1-carboxylic acid (2-chloro-4-trifluoromethanesulfonyl-phenyl)-amide]
